Assay results reported in patent US20240165261A1, “MEANS AND METHOD FOR CYTOSOLIC DELIVERY” (Universiteit Gent, priority 2021, published 2024).

Test system: primary human T cells
Assay: FD10 delivery in primary human T cells by flow cytometry
Type: cell-based
Settings: human T cells with dex-NG and FD10, ROS scavenger added (FIG. 12a)
Procedure: FIG. 8. […] Human T cells were isolated from peripheral blood mononuclear cells and expanded for several weeks. […] As a control, cells were treated with nucleofection (program E0-115, Lonza Nucleofector, white bars) (a) Quantitative analysis of FD10 delivery efficiency using flow cytometry. Cells were stained with a membrane exclusion dye (TO-PRO-3 iodide) staining dead cells. TO-PRO-3 iodide negative cells were gated for delivery efficiency analysis. (b) Analysis of cell viability, 4 h after treatment, using an ATP-based viability assay (CellTiter-Glo®). (c-d) Quantitative analysis of FD10 delivery efficiency using flow cytometry on TO-PRO-3 iodide negative cells. The yield is determined as percentage living cells (based on CellTiter-Glo® assay), multiplied by the percentage of FD10-positive cells. Data shown as the mean±SD of three independent experiments (n=3). Statistical significance is reported where relevant (ns p≥0.05, * p<0.05, ** p≤0.01, *** p≤0.001, **** p≤0.0001).
Human T cells were seeded at 1×10^6 cells per well in a glass bottom 96-well plate (Greiner Bio-One GmbH, Vilvoorde, Belgium). […] Quantitative analysis of delivery efficiency was performed using flow cytometry on living (i.e. TO-PRO-3 negative) cells (CytoFLEX equipped with CytExpert software; Beckman Coulter, Krefeld, Germany). […]

Compound: OCCS [β-mercaptoethanol]
- beneficial effect on cytosolic FD10 delivery as seen with NAC: could not be replicated
